Results reported in ChEMBL document CHEMBL1134159, “Sulfonylated aminothiazoles as new small molecule inhibitors of protein phosphatases” (Bioorg Med Chem Lett, 2001).
pIC50, pKi: −log10 of the molar value.

Legend:
[1] = molecular target: T1, Dual specificity protein phosphatase 3 (Homo sapiens, UniProt P51452); experiment: In vitro inhibitory activity against human recombinant VHR phosphatase enzyme
[2] = molecular target: T2, Tyrosine-protein phosphatase non-receptor type 1 (Homo sapiens, UniProt P18031); experiment: In vitro inhibitory activity against human recombinant PTP1B phosphatase enzyme
T2 sequence (P18031 whole entry): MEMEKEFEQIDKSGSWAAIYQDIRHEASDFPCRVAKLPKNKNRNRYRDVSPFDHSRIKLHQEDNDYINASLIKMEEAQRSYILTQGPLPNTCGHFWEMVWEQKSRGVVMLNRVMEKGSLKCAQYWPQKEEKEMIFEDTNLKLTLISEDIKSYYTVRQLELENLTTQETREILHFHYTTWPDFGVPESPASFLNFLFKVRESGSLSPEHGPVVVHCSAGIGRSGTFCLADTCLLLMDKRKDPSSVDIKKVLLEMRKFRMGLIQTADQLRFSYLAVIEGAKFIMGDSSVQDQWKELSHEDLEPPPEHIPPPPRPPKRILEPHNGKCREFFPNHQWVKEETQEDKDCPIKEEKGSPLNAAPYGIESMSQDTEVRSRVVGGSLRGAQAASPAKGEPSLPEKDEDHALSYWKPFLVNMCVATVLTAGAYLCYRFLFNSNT

[3] = molecular target: T3, M-phase inducer phosphatase 2 (Homo sapiens, UniProt P30305); experiment: Inhibitory activity against human recombinant Cdc25B phosphatase enzyme
T3 sequence (P30305 whole entry): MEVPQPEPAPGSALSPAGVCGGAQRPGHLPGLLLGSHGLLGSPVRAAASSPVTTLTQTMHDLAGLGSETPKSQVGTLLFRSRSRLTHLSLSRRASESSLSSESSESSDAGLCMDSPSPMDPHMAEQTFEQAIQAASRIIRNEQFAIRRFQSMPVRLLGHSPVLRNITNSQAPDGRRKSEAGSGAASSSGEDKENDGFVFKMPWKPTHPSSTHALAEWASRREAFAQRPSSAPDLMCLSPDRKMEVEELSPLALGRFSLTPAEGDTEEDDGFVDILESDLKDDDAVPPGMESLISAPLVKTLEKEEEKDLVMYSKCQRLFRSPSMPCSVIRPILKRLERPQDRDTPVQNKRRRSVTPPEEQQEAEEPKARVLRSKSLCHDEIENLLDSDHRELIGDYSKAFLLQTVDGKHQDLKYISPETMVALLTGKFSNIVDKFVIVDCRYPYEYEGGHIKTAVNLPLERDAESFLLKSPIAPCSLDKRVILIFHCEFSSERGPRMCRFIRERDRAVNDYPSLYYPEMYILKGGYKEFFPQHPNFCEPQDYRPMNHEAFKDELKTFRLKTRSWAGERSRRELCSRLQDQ

[4] = molecular target: T3, M-phase inducer phosphatase 2; experiment: In vitro inhibitory activity against human recombinant Cdc25B phosphatase enzyme
[5] = molecular target: T3, M-phase inducer phosphatase 2; experiment: In vitro inhibitory activity against human recombinant Cell division cycle 25B
[6] = molecular target: T1, Dual specificity protein phosphatase 3; experiment: In vitro inhibitory activity against human recombinant Dual specificity protein phosphatase 3 enzyme
[7] = molecular target: T2, Tyrosine-protein phosphatase non-receptor type 1; experiment: In vitro inhibitory activity against human recombinant Protein-tyrosine phosphatase 1B

T1 sequence (P51452 whole entry): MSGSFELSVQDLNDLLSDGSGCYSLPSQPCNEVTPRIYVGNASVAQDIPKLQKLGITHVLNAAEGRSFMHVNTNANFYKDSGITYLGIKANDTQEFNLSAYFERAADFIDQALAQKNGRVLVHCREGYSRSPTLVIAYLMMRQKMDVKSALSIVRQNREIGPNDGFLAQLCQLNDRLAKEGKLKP

| Compound | pIC50 [1] | pIC50 [2] | pKi [3] | pIC50 [4] | pIC50 [5] | pIC50 [6] | pIC50 [7] |
| --- | --- | --- | --- | --- | --- | --- | --- |
| O=S(=O)(/C=C/c1ccc2ccccc2c1)Nc1nc(-c2ccccc2)c(-c2ccccc2)s1 | 4.52 | 4.35 | 4.44 | 4.66 |  |  |  |
| CCCc1sc(NS(=O)(=O)/C=C/c2ccc(F)c(F)c2)nc1-c1ccc(C(F)(F)F)cc1 | 4.51 | 4.54 |  | 4.60 |  |  |  |
| CCCc1sc(NS(=O)(=O)/C=C/c2ccc3ccccc3c2)nc1-c1ccc(-c2ccccc2)cc1 | 4.24 | < 4.00 |  | < 4.00 |  |  |  |
| N#Cc1ccc(/C=C/S(=O)(=O)Nc2nc(-c3ccccc3)c(-c3ccccc3)s2)cc1 | 4.49 | 4.24 |  | 4.12 |  |  |  |
| O=S(=O)(/C=C/c1ccc(F)c(F)c1)Nc1nc(-c2ccccc2)c(-c2ccccc2)s1 | 4.48 | 4.07 |  | 4.14 |  |  |  |
| O=S(=O)(/C=C/c1ccco1)Nc1nc(-c2ccccc2)c(-c2ccccc2)s1 | < 4.00 | < 4.00 |  | < 4.00 |  |  |  |
| O=S(=O)(/C=C/c1ccccc1Cl)Nc1nc(-c2ccc(Cl)cc2)cs1 | < 4.00 | < 4.00 |  | 4.05 |  |  |  |
| Cc1sc(NS(=O)(=O)/C=C/c2ccccc2Cl)nc1-c1ccc(Cl)cc1 | < 4.00 | < 4.00 |  | < 4.00 |  |  |  |
| CCCc1sc(NS(=O)(=O)/C=C/c2ccccc2Cl)nc1-c1ccc(C(F)(F)F)cc1 | 4.60 | 5.00 |  | 4.85 |  |  |  |
| CCCCCCCCCCc1sc(NS(=O)(=O)/C=C/c2ccccc2Cl)nc1-c1ccccc1 | < 4.00 | < 4.00 |  | < 4.00 |  |  |  |
| CCCCc1ccc(/C=C/S(=O)(=O)Nc2nc(-c3ccccc3)c(-c3ccccc3)s2)cc1 | 4.41 | < 4.00 |  | 4.24 |  |  |  |
| CCc1sc(NS(=O)(=O)/C=C/c2ccc([N+](=O)[O-])cc2)nc1-c1ccccc1 | 4.30 | 4.08 |  | 4.06 |  |  |  |
| O=S(=O)(/C=C/c1ccc(-c2ccccc2)cc1)Nc1nc(-c2ccccc2)c(-c2ccccc2)s1 | 4.47 | 4.05 |  | 4.15 |  |  |  |
| CCc1sc(NS(=O)(=O)/C=C/c2ccc(S(C)(=O)=O)cc2)nc1-c1ccccc1 | < 4.00 | < 4.00 |  | < 4.00 |  |  |  |
| CCc1sc(NS(=O)(=O)/C=C/c2ccccc2Cl)nc1-c1ccccc1 | < 4.00 | < 4.00 |  | < 4.00 |  |  |  |
| CCCc1sc(NS(=O)(=O)/C=C/c2ccc(C)cc2)nc1-c1ccc(-c2ccccc2)cc1 | 4.68 | 4.24 |  | 4.34 |  |  |  |
| CCCCCCCCC/C=C/S(=O)(=O)Nc1nc(-c2ccccc2)c(-c2ccccc2)s1 | 4.62 | 4.31 |  | 4.48 |  |  |  |
| O=S(=O)(/C=C/c1ccccc1Cl)Nc1nc(-c2ccccc2)c(-c2ccccc2)s1 | 4.40 | 4.42 |  | 4.59 |  |  |  |

| Compound | pIC50 [1] | pIC50 [2] | pKi [3] | pIC50 [4] | pIC50 [5] | pIC50 [6] | pIC50 [7] |
| --- | --- | --- | --- | --- | --- | --- | --- |
| COC(=O)c1ccc(/C=C/S(=O)(=O)Nc2nc(-c3ccccc3)c(-c3ccccc3)s2)cc1 | 4.70 | 4.23 |  | 4.59 |  |  |  |
| O=S(=O)(/C=C/c1ccc(C(F)(F)F)cc1)Nc1nc(-c2ccccc2)c(-c2ccccc2)s1 | 4.60 | 4.44 |  | 4.47 |  |  |  |
| CCCc1sc(NS(=O)(=O)/C=C/c2ccc(C)cc2)nc1-c1ccc(C(F)(F)F)cc1 | 4.51 | 4.70 |  | 4.70 |  |  |  |
| Cc1sc(NS(=O)(=O)/C=C/c2ccc(F)c(F)c2)nc1-c1ccc(Cl)cc1 | 4.37 | 4.29 |  | 4.48 |  |  |  |
| CCCCc1ccc(/C=C/S(=O)(=O)Nc2nc(-c3ccc(-c4ccccc4)cc3)c(CCC)s2)cc1 | 4.27 | < 4.00 |  | 4.10 |  |  |  |
| O=[N+]([O-])c1ccc(/C=C/S(=O)(=O)Nc2nc(-c3ccccc3)c(-c3ccccc3)s2)cc1 | 4.33 | 4.24 |  | 4.27 |  |  |  |
| CCCc1sc(NS(=O)(=O)/C=C/c2ccc(C(F)(F)F)cc2)nc1-c1ccc(-c2ccccc2)cc1 | 4.38 | < 4.00 |  | 4.04 |  |  |  |
| Cc1ccc(/C=C/S(=O)(=O)Nc2nc(-c3ccccc3)c(-c3ccccc3)s2)cc1 | < 4.00 | < 4.00 |  | < 4.00 |  |  |  |
| CCCc1sc(NS(=O)(=O)/C=C/c2ccc3ccccc3c2)nc1-c1ccc2ccccc2c1 | 4.47 | 4.01 |  | 4.16 |  |  |  |
| COc1ccc(/C=C/S(=O)(=O)Nc2nc(-c3ccccc3)c(-c3ccccc3)s2)cc1OC | < 4.00 | < 4.00 |  | < 4.00 |  |  |  |
| CCc1sc(NS(=O)(=O)/C=C/c2ccc3ccccc3c2)nc1-c1ccccc1 | 4.49 | < 4.00 |  | 4.05 |  |  |  |
| CCCc1sc(NS(=O)(=O)/C=C/c2ccc(F)c(F)c2)nc1-c1ccc(-c2ccccc2)cc1 |  |  |  |  | 4.40 | 4.66 | 4.11 |
| CCCc1sc(NS(=O)(=O)/C=C/c2ccc(C)cc2)nc1-c1ccc(Cl)cc1 | 4.32 | 4.49 |  | 4.47 |  |  |  |
| CCCc1sc(NS(=O)(=O)/C=C/c2ccc(-c3ccccc3)cc2)nc1-c1ccc(Cl)cc1 | 4.57 | 4.46 |  | 4.42 |  |  |  |
| CCCc1sc(NS(=O)(=O)/C=C/c2ccccc2Cl)nc1-c1ccc(-c2ccccc2)cc1 | 4.09 | < 4.00 |  | < 4.00 |  |  |  |
| CCCc1sc(NS(=O)(=O)/C=C/c2ccccc2Cl)nc1-c1ccc(Cl)cc1 | 4.49 | 4.62 | 5.34 | 4.59 |  |  |  |
| CCCc1sc(NS(=O)(=O)/C=C/c2ccc(F)c(F)c2)nc1-c1ccc(Cl)cc1 | 4.70 | 4.70 |  | 4.68 |  |  |  |
